Measured values: the CheMixHub viscosity set

Experiment: xn = mol fraction of the nth substance listed

N#Cc1ccccc1 + CCCCCO
viscosity [mPa·s], 101.33 kPa
Conditions | x1 = 0.1034 | x1 = 0.1623 | x1 = 0.3038 | x1 = 0.387 | x1 = 0.5033 | x1 = 0.6086 | x1 = 0.7205 | x1 = 0.82 | x1 = 0.9162
303.15 K | 2.395 | 2.152 | 1.737 | 1.558 | 1.374 | 1.262 | 1.182 | 1.153 | 1.14
308.15 K | 2.116 | 1.925 | 1.565 | 1.406 | 1.244 | 1.162 | 1.097 | 1.079 | 1.064
313.15 K | 1.895 | 1.723 | 1.412 | 1.283 | 1.14 | 1.07 | 1.017 | 1.01 | 0.993

CCCOCCO + CC(=O)N(C)C
298.15 K, 101 kPa
Conditions | viscosity [mPa·s]
x1 = 0.0049 | 0.951
x1 = 0.0086 | 0.956
x1 = 0.0134 | 0.961
x1 = 0.0272 | 0.982
x1 = 0.0419 | 1.01
x1 = 0.0739 | 1.049
x1 = 0.1253 | 1.125
x1 = 0.178 | 1.202
x1 = 0.2555 | 1.322
x1 = 0.3191 | 1.426
x1 = 0.3487 | 1.478
x1 = 0.3842 | 1.536
x1 = 0.4022 | 1.578
x1 = 0.4678 | 1.679
x1 = 0.5258 | 1.786
x1 = 0.5917 | 1.897
x1 = 0.6504 | 1.987
x1 = 0.725 | 2.094
x1 = 0.8523 | 2.26
x1 = 0.9508 | 2.339
x1 = 0.979 | 2.345

Nc1cccc2ccccc12 + Oc1ccccc1
viscosity [mPa·s], 101.33 kPa
Conditions | x1 = 0.4159 | x1 = 0.4605 | x1 = 0.7133 | x1 = 0.8902
303.15 K | 24.9 | 26.9 | 32.4 | –
323.15 K | 8.52 | 9 | 10.9 | 11.3

C[N+](C)(C)C.NCC(=O)[O-] + OCC(O)CO
303 K, 101 kPa
Conditions | viscosity [mPa·s]
x1 = 0.065 | 397.5
x1 = 0.13 | 390.8
x1 = 0.21 | 380.1
x1 = 0.29 | 369.3
x1 = 0.48 | 346.5
x1 = 0.71 | 327.7

CC(=O)CCc1ccccc1 + CCCCCOC(C)=O
298.15 K, 101 kPa
Conditions | viscosity [mPa·s]
x1 = 0.0322 | 0.8102
x1 = 0.0702 | 0.8323

O=[N+]([O-])[O-].O=[N+]([O-])[O-].[Ca+2] + O
viscosity [mPa·s], 100 kPa
Conditions | x1 = 0.00575 | x1 = 0.006 | x1 = 0.01 | x1 = 0.01205 | x1 = 0.0267 | x1 = 0.03 | x1 = 0.04 | x1 = 0.04494 | x1 = 0.06819 | x1 = 0.07
298.15 K | 0.963 | 0.964 | 1.052 | 1.051 | 1.384 | 1.328 | 1.955 | 1.954 | 3.256 | 3.257
323.15 K | 0.599 | 0.599 | 0.66 | 0.66 | 0.852 | 0.844 | 1.207 | 1.204 | 1.928 | 1.931

CCCCn1cc[n+](C)c1.[Cl-] + CO
101 kPa
Conditions | viscosity [mPa·s]
293.15 K, x2 = 0.5001 | 65.2
293.15 K, x2 = 0.7002 | 8.41
298.15 K, x2 = 0.7015 | 7.51
308.15 K, x2 = 0.7001 | 6.61

CCCOCCO + O=S1(=O)CCCC1
303.15 K, 101 kPa
Conditions | viscosity [mPa·s]
x2 = 0.0493 | 1.842
x2 = 0.1029 | 1.682
x2 = 0.1508 | 1.659
x2 = 0.1991 | 1.748
x2 = 0.2989 | 2.284
x2 = 0.3489 | 2.685
x2 = 0.3998 | 3.16
x2 = 0.4993 | 4.193
x2 = 0.5988 | 5.262
x2 = 0.7002 | 6.392
x2 = 0.8 | 7.572
x2 = 0.9012 | 8.861
x2 = 0.9504 | 9.498

O=S(=O)(O)CCN1CCOCC1 + O
viscosity [mPa·s], 101.3 kPa
Conditions | x1 = 0.003662 | x1 = 0.0073 | x1 = 0.00959 | x1 = 0.01075 | x1 = 0.01417 | x1 = 0.01767
298.15 K | 0.918 | 0.98 | 1.006 | 1.035 | 1.101 | 1.153
308.15 K | 0.743 | 0.792 | 0.814 | 0.836 | 0.893 | 0.932
318.15 K | 0.616 | 0.657 | 0.676 | 0.693 | 0.737 | 0.772

C[n+]1ccn(CCc2ccccc2)c1.[Cl][Al-]([Cl])([Cl])[Cl] + CCCC[n+]1ccn(C)c1.[Cl][Al-]([Cl])([Cl])[Cl]
viscosity [mPa·s], 101 kPa
Conditions | 293.15 K | 298.15 K | 303.15 K | 308.15 K | 313.15 K | 318.15 K | 323.15 K
x2 = 0.5 | 92.4 | 74.8 | 60.6 | 50.1 | 41.7 | 36.4 | 32.1
x2 = 0.6 | 75.1 | 60 | 50.6 | 41.6 | 35.6 | 30.4 | 27

CCOCCOCCOCCO + ClC=C(Cl)Cl
298.15 K, 101.33 kPa
Conditions | viscosity [mPa·s]
x1 = 0.0053 | 0.54
x1 = 0.0167 | 0.565
x1 = 0.026 | 0.587
x1 = 0.0395 | 0.618
x1 = 0.0528 | 0.651
x1 = 0.0728 | 0.707
x1 = 0.1054 | 0.809
x1 = 0.1458 | 0.947
x1 = 0.1858 | 1.103
x1 = 0.2345 | 1.326
x1 = 0.2866 | 1.587
x1 = 0.3318 | 1.832
x1 = 0.3679 | 2.048
x1 = 0.4108 | 2.323
x1 = 0.447 | 2.559
x1 = 0.4818 | 2.796
x1 = 0.523 | 3.087
x1 = 0.5639 | 3.396
x1 = 0.6278 | 3.88
x1 = 0.6904 | 4.378
x1 = 0.7278 | 4.683
x1 = 0.7721 | 5.051
x1 = 0.8271 | 5.521
x1 = 0.8733 | 5.952
x1 = 0.9136 | 6.273
x1 = 0.9317 | 6.46
x1 = 0.9672 | 6.773
x2 = 0.0194 | 6.891

N#Cc1ccccc1 + CO
Conditions | viscosity [mPa·s]
303 K, 100 kPa, x1 = 0.0991 | 0.6312
303 K, 100 kPa, x1 = 0.2405 | 0.7232
303 K, 100 kPa, x1 = 0.3585 | 0.7886
303 K, 100 kPa, x1 = 0.4974 | 0.8399
303 K, 100 kPa, x1 = 0.6272 | 0.9121
303 K, 100 kPa, x1 = 0.7094 | 0.9522
303 K, 100 kPa, x1 = 0.8023 | 0.9912
303 K, 100 kPa, x1 = 0.897 | 1.035
303.15 K, 101.33 kPa, x1 = 0.0854 | 0.562
303.15 K, 101.33 kPa, x1 = 0.1569 | 0.603
303.15 K, 101.33 kPa, x1 = 0.2408 | 0.652
303.15 K, 101.33 kPa, x1 = 0.4349 | 0.763
303.15 K, 101.33 kPa, x1 = 0.5335 | 0.82
303.15 K, 101.33 kPa, x1 = 0.6304 | 0.875
303.15 K, 101.33 kPa, x1 = 0.7155 | 0.926
303.15 K, 101.33 kPa, x1 = 0.8439 | 1.011
303.15 K, 101.33 kPa, x1 = 0.9059 | 1.061
308 K, 100 kPa, x1 = 0.0991 | 0.5712
308 K, 100 kPa, x1 = 0.2405 | 0.6523
308 K, 100 kPa, x1 = 0.3585 | 0.7123
308 K, 100 kPa, x1 = 0.4974 | 0.7652
308 K, 100 kPa, x1 = 0.6272 | 0.8012
308 K, 100 kPa, x1 = 0.7094 | 0.8307
308 K, 100 kPa, x1 = 0.8023 | 0.8716
308 K, 100 kPa, x1 = 0.897 | 0.9146
308.15 K, 101.33 kPa, x1 = 0.0854 | 0.525
308.15 K, 101.33 kPa, x1 = 0.1569 | 0.562
308.15 K, 101.33 kPa, x1 = 0.2408 | 0.608
308.15 K, 101.33 kPa, x1 = 0.4349 | 0.709
308.15 K, 101.33 kPa, x1 = 0.5335 | 0.761
308.15 K, 101.33 kPa, x1 = 0.6304 | 0.811
308.15 K, 101.33 kPa, x1 = 0.7155 | 0.859
308.15 K, 101.33 kPa, x1 = 0.8439 | 0.938
308.15 K, 101.33 kPa, x1 = 0.9059 | 0.985
313 K, 100 kPa, x1 = 0.0991 | 0.5056
313 K, 100 kPa, x1 = 0.2405 | 0.5595
313 K, 100 kPa, x1 = 0.3585 | 0.6235
313 K, 100 kPa, x1 = 0.4974 | 0.6856
313 K, 100 kPa, x1 = 0.6272 | 0.7325
313 K, 100 kPa, x1 = 0.7094 | 0.7731
313 K, 100 kPa, x1 = 0.8023 | 0.8134
313 K, 100 kPa, x1 = 0.897 | 0.8658

N#Cc1ccccc1 + CCO
viscosity [mPa·s], 101.33 kPa
Conditions | x1 = 0.1051 | x1 = 0.2045 | x1 = 0.3213 | x1 = 0.4131 | x1 = 0.4921 | x1 = 0.6214 | x1 = 0.6673 | x1 = 0.769 | x1 = 0.9218
303.15 K | 0.923 | 0.891 | 0.897 | 0.901 | 0.912 | 0.938 | 0.963 | 1.006 | 1.075
308.15 K | 0.846 | 0.817 | 0.826 | 0.834 | 0.849 | 0.873 | 0.893 | 0.935 | 1.005
313.15 K | 0.775 | 0.75 | 0.762 | 0.772 | 0.785 | 0.813 | 0.828 | 0.87 | 0.939
